{
  "source": "patent US20060062850A1",
  "about": "“Controlled release antimicrobial polymer compositions” (priority 2004, published 2006)",
  "key": {"L. monocytogenes 15313 [1]": {"tested_on": "L. monocytogenes 15313", "assay": "spot on lawn assay", "format": "cell-based", "description": "For each concentration of each antimicrobial agent, a spot on lawn assay was conducted as a positive control experiment to assess the efficacy of the antimicrobial solutions. In this assay, Trypticase Soy Agar (TSA) and Modified Oxford Agar (MOX) agar plates were inoculated with L. monocytogenes 15313 at a level of 10E+08 cfu/ml through an Autoplate 4000 model from Spiral Biotech, Inc., of Norwood, Mass. A volumetric pipette pump was then used to place three 10 μl spots of antimicrobial solution onto three well-separated regions of the test plate. Another volumetric pipette pump was used to place 10 μl of a negative control solution (i.e., neat solvent(s)) onto another well-separated region. Three such agar plates were prepared for each concentration of antimicrobial solution. After spot placement, the agar plates were allowed to stand undisturbed for 10 to 30 minutes in a laminar flow hood before incubation at 37° C. for at least 24 hours.\nThe zone of inhibition resulting from each spot of antimicrobial solution was measured using a dial caliper (available from Brown and Sharpe of North Kingstown, R.I.; accuracy to 0.02 mm). Each zone of inhibition was measured twice, once on each of two perpendicular axes. The values reported in Tables 2 (TSA plates) and 3 (MOX plates) are the average of 18 measurements."}, "L. monocytogenes 15313 [2]": {"tested_on": "L. monocytogenes 15313", "assay": "film on lawn assay", "format": "cell-based", "conditions": "incubation at 37 C.", "description": "In a film on lawn assay, films of Example 1 and Example 2 were cut into 15 mm by 15 mm samples, placed onto aluminum foil, and exposed to UV light in a laminar flow hood for 4 to 7 minutes. The samples were then transferred from the foil to one of six freshly made up antimicrobial solutions to imbibe for 12 to 24 hours at a specified temperature (4° C. or 37° C.). The films are expected to substantially reach equilibration in less than 12 hours. The films were removed with a pair of flame-sterilized ocular forceps, allowed to drip dry, and held for 60 seconds on a sterile Petri dish before positioning on TSA and MOX agar plates. The agar plates had been prepared as described above with respect to the spot on lawn assay. Two films were placed on each of the prepared agar plates, in well-separated regions. A third 15 mm×15 mm film was imbibed under the same conditions in a negative control solution and placed in another region of the plate. Three plates were prepared in this manner for each concentration of each antimicrobial agent. In the case of the MOX agar plates, a fourth plate was prepared with the same level of innoculum, with no films in it, to serve as a growth indicator plate for color change. After film placement, the plates were allowed to stand undisturbed for 10 to 30 minutes in a laminar flow hood before incubation for at least 24 hours.\nIncubation took place at either 4° C. for 14 to 28 days or 37° C. for two to five days. The incubation conditions are noted in the Tables.\nThe zone of inhibition resulting from each spot of antimicrobial solution was measured as described above, with respect to the spot on lawn assay. The values reported in Tables 5 and 6 are the average of 12 measurements. Occasionally inhibition could be observed on the MOX agar plates, but not easily measured, owing to the relatively diffuse boundaries between areas of inhibition and non-inhibition. In such cases, a qualitative description of the results is provided."}},
  "data": [
    {"smiles": "O=C(O)c1ccccc1", "note": "[Benzoic acid]", "values": [
      {"measurement": "Group averages of Inhibition Zones, Spot on Lawn Assay", "setting": "L. monocytogenes 15313 [1]; MOX Agar Plates, 0.75 wt % in Ethanol/Water (36/63.25)", "value": 7.91, "unit": "mm"},
      {"measurement": "Group averages of Inhibition Zones, Spot on Lawn Assay", "setting": "L. monocytogenes 15313 [1]; MOX Agar Plates, 1.5 wt % in Ethanol/Water (36/62.5)", "value": 8.66, "unit": "mm"},
      {"measurement": "Group averages of Inhibition Zones, Spot on Lawn Assay", "setting": "L. monocytogenes 15313 [1]; MOX Agar Plates, 3.0 wt % in Ethanol/Water (36/61)", "value": 8.75, "unit": "mm"},
      {"measurement": "Group averages of Inhibition Zones, Spot on Lawn Assay", "setting": "L. monocytogenes 15313 [1]; TSA Agar, 0.75 wt % in Ethanol/Water (36/63.25)", "value": "8.13 ± 0.27", "unit": "mm"},
      {"measurement": "Group averages of Inhibition Zones, Spot on Lawn Assay", "setting": "L. monocytogenes 15313 [1]; TSA Agar, 1.5 wt % in Ethanol/Water (36/62.5)", "value": "8.32 ± 0.69", "unit": "mm"},
      {"measurement": "Group averages of Inhibition Zones, Spot on Lawn Assay", "setting": "L. monocytogenes 15313 [1]; TSA Agar, 3.0 wt % in Ethanol/Water (36/61)", "value": "8.32 ± 0.53", "unit": "mm"},
      {"measurement": "Group averages of Inhibition Zones, Film on Lawn Assay Example 1", "setting": "L. monocytogenes 15313 [2]; MOX Agar Plates, Example 1 film soaked at 37 C. in 0.75 wt % solution, Ethanol/Water (36/63.25)", "value": "0 (no inhibition) mm"},
      {"measurement": "Group averages of Inhibition Zones, Film on Lawn Assay Example 1", "setting": "L. monocytogenes 15313 [2]; MOX Agar Plates, Example 1 film soaked at 37 C. in 1.5 wt % solution, Ethanol/Water (36/62.5)", "value": "24.0 ± 3.34", "unit": "mm"},
      {"measurement": "Group averages of Inhibition Zones, Film on Lawn Assay Example 1", "setting": "L. monocytogenes 15313 [2]; MOX Agar Plates, Example 1 film soaked at 37 C. in 3.0 wt % solution, Ethanol/Water (36/61)", "value": "39.52 ± 2.93", "unit": "mm"},
      {"measurement": "Group averages of Inhibition Zones, Film on Lawn Assay Example 2", "setting": "L. monocytogenes 15313 [2]; MOX Agar Plates, Example 2 film soaked at 37 C. in 0.75 wt % solution, Ethanol/Water (36/63.25)", "value": "0 (no inhibition) mm"},
      {"measurement": "Group averages of Inhibition Zones, Film on Lawn Assay Example 2", "setting": "L. monocytogenes 15313 [2]; MOX Agar Plates, Example 2 film soaked at 37 C. in 1.5 wt % solution, Ethanol/Water (36/62.5)", "value": "21.38 ± 3.90", "unit": "mm"},
      {"measurement": "Group averages of Inhibition Zones, Film on Lawn Assay Example 2", "setting": "L. monocytogenes 15313 [2]; MOX Agar Plates, Example 2 film soaked at 37 C. in 3.0 wt % solution, Ethanol/Water (36/61)", "value": "32.29 ± 7.53", "unit": "mm"},
      {"measurement": "Group averages of Inhibition Zones, Film on Lawn Assay Example 1", "setting": "L. monocytogenes 15313 [2]; TSA Agar, Example 1 film soaked at 37 C. in 0.75 wt % solution, Ethanol/Water (36/63.25)", "value": "0 (no inhibition) mm"},
      {"measurement": "Group averages of Inhibition Zones, Film on Lawn Assay Example 1", "setting": "L. monocytogenes 15313 [2]; TSA Agar, Example 1 film soaked at 37 C. in 1.5 wt % solution, Ethanol/Water (36/62.5)", "value": "17.68 ± 1.64", "unit": "mm"},
      {"measurement": "Group averages of Inhibition Zones, Film on Lawn Assay Example 1", "setting": "L. monocytogenes 15313 [2]; TSA Agar, Example 1 film soaked at 37 C. in 3.0 wt % solution, Ethanol/Water (36/61)", "value": "20.17 ± 1.19", "unit": "mm"},
      {"measurement": "Group averages of Inhibition Zones, Film on Lawn Assay Example 2", "setting": "L. monocytogenes 15313 [2]; TSA Agar, Example 2 film soaked at 37 C. in 0.75 wt % solution, Ethanol/Water (36/63.25)", "value": "0 (no inhibition) mm"},
      {"measurement": "Group averages of Inhibition Zones, Film on Lawn Assay Example 2", "setting": "L. monocytogenes 15313 [2]; TSA Agar, Example 2 film soaked at 37 C. in 1.5 wt % solution, Ethanol/Water (36/62.5)", "value": "18.60 ± 0.61", "unit": "mm"},
      {"measurement": "Group averages of Inhibition Zones, Film on Lawn Assay Example 2", "setting": "L. monocytogenes 15313 [2]; TSA Agar, Example 2 film soaked at 37 C. in 3.0 wt % solution, Ethanol/Water (36/61)", "value": "18.90 ± 1.82", "unit": "mm"}
    ]}
  ]
}
